Marks after values point to notes of the source that are not given here.
How the values were obtained:
[1] = tested on: AMPK in Huh-7 cells; experiment: Activation activity on AMPK in Huh-7 cells (Western Blot); type: cell-based; details: 10 μM, 12 h, Western Blot gray scale, relative to DMSO = 1
Experimental: The activation activity of a compound on AMPK in Huh-7 cells was detected by using Western Blot.
Cell culture conditions: Huh-7 cells were cultured in an incubator with 5% CO2 at 37° C. in DMEM complete medium (containing 10% fetal calf serum and 1% streptomycin/penicillin).
Antibody: anti-AMPK (CST, 2532S); anti-pAMPK (CST, 2535S).
Western Blot experiment: the influence of the compound on phosphorylation level of the AMPK in the Huh-7 cells was detected: cells with more than 90% cells alive were taken for the experiment. In a 12-well plate, the Huh-7 cells were plated in the plate at 250000 cells per well, the plate was placed in the incubator with 5% CO2 at 37° C. for culture, an original culture medium was discarded after 12 h, a complete medium containing the pentacyclic triterpenoid saponin was added, a final concentration of subject pentacyclic triterpenoid saponin was set to be 10 μM, and an administration time was set to be 12 h. A positive control compound employs AICAR (100 μM), metformin (70 μM) or A-769662 (100 μM). Then proteins were extracted for Western Blot detection.
Experimental result: a Western Blot experimental result was subjected to gray scale scanning, a p-AMPK/AMPK ratio of negative control DMSO was defined as 1, and a p-AMPK/AMPK ratio of the subject compound was a relative ratio of a negative control group. The larger the numerical value was, the stronger the activation activity of the AMPK of the compound was.

[2] = tested on: high fat diet induced NASH model rats; experiment: High fat diet (HFD) induced NASH rat model; type: in vivo; details: for Liver TC / Liver TG / Serum LDL-c / Serum TG: HFD induced NASH model rats; for Liver TC / Liver TG / Serum LDL-c / Serum TG / ALT / AST: n = 8; for ALT / AST: serum of HFD induced NASH model rats
Experimental: Animal: 32 SD male rats of SPF level with 6 weeks old and 220 g were purchased from Beijing Vital River Laboratory Animal Technology Co., Ltd. All the animals maintained 12 h alternative circadian rhythm with free access to food.
Reagent: the ginsenoside Ro (I) was purchased from Shanghai Boka Chemistry Technology Co., Ltd; obeticholic acid (OCA) was purchased from Jiangsu Vcare PharmaTech Co., Ltd; high fat diets were purchased from Research Diets (D12492, 60 kcal %); and standard feeds were purchased from Research Diets (D12450B, 10 kcal %).
The rats were randomly divided into 4 groups based on the weight: a control group (CHOW), a high fat diet model group (HFD), a positive drug obeticholic acid (OCA, 5 mg/Kg) group (HFD+OCA) and a ginsenoside Ro (Ro for short, 5 mg/kg) group (HFD+Ro). The control group was fed with the standard feeds and drank water normally; and the rest groups were fed with the high fat diets, drank 10% aqueous sucrose solution for replacing the water and were modeled for 20 weeks.
After 20 weeks, the control group and the high fat diet model group were given with a CMC-Na solution with the volume fraction of 0.5% intragastrically every day, the HFD+OCA group was given with the obeticholic acid (5 mg/Kg) intragastrically every day, and the HFD+Ro was given with the ginsenoside Ro (5 mg/Kg) intragastrically every day. Administration was conducted for 8 weeks, during which, the control group was given with the standard feeds and drank the water normally, and the rest three groups were given with the high fat diets and drank 10% aqueous sucrose solution. The rats in each group were weighed every day, weights, hairs, feces and activity conditions were carefully observed and recorded.
The rats were deprived of food but not water for 12 h in advance; and the next morning, blood was taken from eye sockets, the rats were sacrificed, and livers were harvested. Right liver lobule tissues were fixed with 4% paraformaldehyde for HE stained slicing. A part of liver tissues were divided into 3 parts, which were snap-frozen in liquid nitrogen for subsequent detection of other indexes.
Whole blood was left to still standing for 2 h at room temperature, centrifugation was conducted for 15 min at 3000 rpm, and a serum was collected. 100 Mg of liver tissues were taken and homogenized with 0.9 mL of precooled normal saline, a homogenate was centrifuged for 15 min at 4° C. and 3000 rpm, and a supernatant was taken. Both of the serum and the supernatant were sent to Pathologic Department of Hospital of Integrated Traditional Chinese and Western Medicine in Jiangsu Province for determination of levels of triglyceride (TG), total cholesterol (TC), low density lipoprotein cholesterin (LDL-c) and high density lipoprotein cholesterol (HDL-c) in the serum and levels of the TG and the TC in the supernatant of the homogenate of the liver tissues with the full-automatic biochemical analyzer.
Pretreated tissues were sent to Google Biotechnology Co., Ltd for preparing HE stained slices and oil red stained slices.
Liver tissues preserved at −80° C. were put in the liquid nitrogen, about 10 mg of the liver tissues were quickly dissected out, 500 μL of precooled tissue lysate was added, and the tissues were homogenized with a homogenizer and then left to lyse on ice for 30 min; and centrifugation was conducted for 15min at 4° C. and 12000 rpm, […] of a supernatant was sucked to a clean EP tube, […] of the supernatant was taken for BCA protein quantification, […] of 5*loading buffer was added in the rest protein supernatant for denaturing by boiling, SDS-PAGE electrophoresis was conducted subsequently, the proteins were transferred onto a PVDF membrane, then incubation and elution of a relevant antibody were conducted, and finally, a chemiluminescence apparatus was employed for imaging analysis.

[3] = HFD NASH rats, summary in words
[4] = HFD NASH rats, 5 mg/Kg intragastrically every day, 8 weeks (FIG. 4)
[5] = HFD NASH rats, 5 mg/Kg, 8 weeks, q-PCR (FIG. 6)
[6] = HFD NASH rats, 5 mg/Kg, 8 weeks, q-PCR (FIG. 7)

`C[C@@H]1CC[C@]2(C(=O)O[C@@H]3O[C@H](CO)[C@@H](O)[C@H](O)[C@H]3O)CC[C@]3(C)C(=CC[C@@H]4[C@@]5(C)CC[C@H](O[C@@H]6OC[C@H](O)[C@H](O)[C@H]6O)C(C)(C)[C@@H]5CC[C@]43C)[C@@H]2[C@]1(C)O` [(XII), ziyuglycoside I] was tested, and the pAMPK/AMPK ratio [1] was 2.45, the “inflammatory responses of the livers” value [2, 3] was “inhibit” and the “lipid accumulation, caused by the high fat diets, of the rat livers” value (“lipid accumulation, caused” for short) [2, 3] was “effectively lower”. The “Liver TC” value ([2]; 5 mg/Kg) was 0.547 ± 0.272* mmoL/gprot, the “Liver TG” value ([2]; 5 mg/Kg) was 1.302 ± 0.443** mmoL/gprot and the “Serum LDL-c” value ([2]; 5 mg/Kg) was 48.52 ± 6.98* mg/dL. The “Serum TG” value ([2]; 5 mg/Kg) was 18.32 ± 2.51** mg/dL, the ALT ([2]; 5 mg/Kg) was 74.03 ± 12.38* U/L and the AST ([2]; 5 mg/Kg) was 120.91 ± 19.32** U/L.
For `CC1(C)CC[C@]2(C(=O)O[C@@H]3O[C@H](CO)[C@@H](O)[C@H](O)[C@H]3O)CC[C@]3(C)C(=CC[C@@H]4[C@@]5(C)CC[C@H](O[C@@H]6O[C@H](C(=O)O)[C@@H](O)[C@H](O)[C@H]6O[C@@H]6O[C@H](CO)[C@@H](O)[C@H](O)[C@H]6O)C(C)(C)[C@@H]5CC[C@]43C)[C@@H]2C1` [(I), ginsenoside Ro], the pAMPK/AMPK ratio [1] was 2.39, the “level of the HDL-c in the serum” value [2, 4] was “effectively lower” and the “level of the LDL-c in the serum” value [2, 4] was “effectively lower”. For the same molecule, the “level of the TC in the serum” value [2, 4] was “effectively lower”, the “contents of the TC in the livers” value ([2]; HFD NASH rats, 5 mg/Kg intragastrically every day, 8 weeks (FIG. 5)) was “significantly lowered” and the “level of the TG in the serum” value ([2]; HFD NASH rats, 5 mg/Kg intragastrically every day, 8 weeks, vs HFD model group (FIG. 4)) was “significantly lower”. For the same molecule, the “level of the TG in the liver” value ([2]; HFD NASH rats, 5 mg/Kg intragastrically every day, 8 weeks, vs HFD model group (FIG. 5)) was “significantly lower”, the “mRNA expression level of IL-6 in liver” value [2, 5] was “significantly inhibit increase” and the “mRNA expression level of IL-10 in liver” value [2, 5] was “significantly inhibit increase”. For the same molecule, the “mRNA expression level of TNF-α in liver” value [2, 5] was “significantly inhibit increase”, the “mRNA expression level of TGF-β in liver” value [2, 6] was “significantly inhibit increase” and the “mRNA expression level of α-SMA in liver” value [2, 6] was “significantly inhibit increase”. The “inflammatory responses of the livers” value [2, 3] was “inhibits”, the “lipid accumulation, caused” value [2, 3] was “significantly lower” and the liver fibrosis [2, 3] was “inhibits”.
With `C[C@@H]1O[C@@H](O[C@H]2[C@H](O[C@H]3CC[C@@]4(C)[C@@H](CC[C@]5(C)[C@@H]4CC=C4[C@@H]6CC(C)(C)CC[C@]6(C(=O)O[C@@H]6O[C@H](CO[C@@H]7O[C@H](CO)[C@@H](O[C@@H]8O[C@@H](C)[C@H](O)[C@@H](O)[C@H]8O)[C@H](O)[C@H]7O)[C@@H](O)[C@H](O)[C@H]6O)CC[C@]45C)[C@]3(C)CO)OC[C@H](O)[C@@H]2O)[C@H](O)[C@H](O)[C@H]1O` [(XI), hederacoside C] the pAMPK/AMPK ratio [1] was 1.95.
`C[C@@H]1O[C@@H](O[C@H]2[C@H](O[C@H]3CC[C@@]4(C)[C@@H](CC[C@]5(C)[C@@H]4CC=C4[C@@H]6CC(C)(C)CC[C@]6(C(=O)O)CC[C@]45C)[C@]3(C)CO)OC[C@H](O)[C@@H]2O)[C@H](O)[C@H](O)[C@H]1O` [(X), α-hederin] was tested, and the pAMPK/AMPK ratio [1] was 3.33.
`C[C@@H]1CC[C@]2(C(=O)O)CC[C@]3(C)C(=CC[C@@H]4[C@@]5(C)CC[C@H](O[C@@H]6OC[C@H](O)[C@H](O)[C@H]6O)C(C)(C)[C@@H]5CC[C@]43C)[C@@H]2[C@]1(C)O` [(XIII), ziyuglycoside II] was tested, and the pAMPK/AMPK ratio [1] was 2.51, the “inflammatory responses of the livers” value [2, 3] was “inhibit” and the “lipid accumulation, caused” value [2, 3] was “effectively lower”. The “Liver TC” value ([2]; 5 mg/Kg) was 0.503 ± 0.256** mmoL/gprot, the “Liver TG” value ([2]; 5 mg/Kg) was 1.299 ± 0.387** mmoL/gprot and the “Serum LDL-c” value ([2]; 5 mg/Kg) was 45.36 ± 5.37** mg/dL. For the same molecule, the “Serum TG” value ([2]; 5 mg/Kg) was 19.41 ± 4.37* mg/dL, the ALT ([2]; 5 mg/Kg) was 69.28 ± 12.33** U/L and the AST ([2]; 5 mg/Kg) was 122.16 ± 17.38** U/L.
With `CC1(C)CC[C@]2(C(=O)O[C@@H]3O[C@H](CO[C@@H]4O[C@H](CO)[C@@H](O)[C@H](O)[C@H]4O)[C@@H](O)[C@H](O)[C@H]3O)CC[C@]3(C)C(=CC[C@@H]4[C@@]5(C)CC[C@H](O[C@@H]6OC[C@H](O)[C@H](O)[C@H]6O)[C@@](C)(CO)[C@@H]5CC[C@]43C)[C@@H]2C1` [(II), asperosaponin VI] the pAMPK/AMPK ratio [1] was 2.90.
With `C[C@H]1O[C@@H](O[C@H]2CC[C@@]3(C)[C@@H](CC[C@]4(C)[C@@H]3C=C[C@]35OC[C@@]6(CCC(C)(C)C[C@H]63)[C@@H](O)C[C@]54C)[C@]2(C)CO)[C@H](O)[C@@H](O[C@@H]2O[C@H](CO)[C@@H](O)[C@H](O)[C@H]2O)[C@H]1O` [(VII), saikosaponin A] the pAMPK/AMPK ratio [1] was 1.76, the “inflammatory responses of the livers” value [2, 3] was “inhibit” and the “lipid accumulation, caused” value [2, 3] was “effectively lower”. The “Liver TC” value ([2]; 5 mg/Kg) was 0.518 ± 0.133** mmoL/gprot, the “Liver TG” value ([2]; 5 mg/Kg) was 1.268 ± 0.294** mmoL/gprot and the “Serum LDL-c” value ([2]; 5 mg/Kg) was 47.06 ± 7.83* mg/dL. For the same molecule, the “Serum TG” value ([2]; 5 mg/Kg) was 20.43 ± 4.04* mg/dL, the ALT ([2]; 5 mg/Kg) was 71.36 ± 9.26* U/L and the AST ([2]; 5 mg/Kg) was 115.24 ± 19.23*** U/L.
For `C[C@H]1O[C@@H](O[C@H]2CC[C@@]3(C)[C@@H](CC[C@]4(C)[C@@H]3C=C[C@]35OC[C@@]6(CCC(C)(C)C[C@H]63)[C@H](O)C[C@]54C)[C@]2(C)CO)[C@H](O)[C@@H](O[C@@H]2O[C@H](CO)[C@@H](O)[C@H](O)[C@H]2O)[C@H]1O` [(VIII), saikosaponin D], the pAMPK/AMPK ratio [1] was 2.0, the “inflammatory responses of the livers” value [2, 3] was “inhibit” and the “lipid accumulation, caused” value [2, 3] was “effectively lower”. The “Liver TC” value ([2]; 5 mg/Kg) was 0.509 ± 0.248** mmoL/gprot, the “Liver TG” value ([2]; 5 mg/Kg) was 1.173 ± 0.606*** mmoL/gprot and the “Serum LDL-c” value ([2]; 5 mg/Kg) was 46.75 ± 7.35** mg/dL. For the same molecule, the “Serum TG” value ([2]; 5 mg/Kg) was 19.66 ± 5.12* mg/dL, the ALT ([2]; 5 mg/Kg) was 67.74 ± 8.29** U/L and the AST ([2]; 5 mg/Kg) was 121.43 ± 9.28** U/L.

Reference: patent US20220331348A1, “METHOD OF PREPARING PENTACYCLIC TRITERPENOID SAPONINS AND DRUG COMPOSITION” (CHINA PHARMACEUTICAL UNIVERSITY, priority 2019, published 2022)
